Among the data in US20060079696A1, “Substituted compounds derived from N-(benzyl)phenylacetamide, preparation and uses” (GENFIT, priority 2004, published 2006) are activation and inhibition values, retold here.

One assay concerns the target T1, hPPARδ (Homo sapiens, UniProt Q03181).
T1 construct: fragments of DNA amplified by PCR corresponding to the DEF domains of the human PPARα, PPARγ PPARδ nuclear receptors; expressed in transfected cells; host or cells: COS-7 (monkey kidney fibroblast line)
T1 sequence (Q03181 211-439 limits assumed): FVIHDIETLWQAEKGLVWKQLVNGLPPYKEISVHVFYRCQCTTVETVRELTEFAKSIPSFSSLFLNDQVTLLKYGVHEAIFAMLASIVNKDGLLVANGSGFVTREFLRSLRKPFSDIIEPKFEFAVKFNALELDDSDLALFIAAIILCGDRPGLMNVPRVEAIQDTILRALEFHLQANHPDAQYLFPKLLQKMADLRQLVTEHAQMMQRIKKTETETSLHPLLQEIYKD
As to the kind of experiment: Gal4-hPPARδ chimera transactivation in COS-7 cells (luciferase). It counts as cell-based. As to conditions: induction factor standardised to an internal reference, read-out: % hGal4-PPAR transactivation (10 μM) delta. The method in brief: (§1)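 COS-7 cells transiently transfected with Gal4-DBD/human PPAR DEF-domain chimeras plus Gal4(RE)_TkpGL3 luciferase reporter (1/10 ratio), then exposed 24 h serum-free to compound at 10 μM. Luciferase induction factor over control, normalised to an internal reference per isoform, expressed as percent activation.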

Another assay addresses T2, hPPARγ (Homo sapiens, UniProt P37231).
T2 construct: fragments of DNA amplified by PCR corresponding to the DEF domains of the human PPARα, PPARγ PPARδ nuclear receptors; expressed in transfected cells; host or cells: COS-7 (monkey kidney fibroblast line)
T2 sequence (P37231 238-503 limits assumed): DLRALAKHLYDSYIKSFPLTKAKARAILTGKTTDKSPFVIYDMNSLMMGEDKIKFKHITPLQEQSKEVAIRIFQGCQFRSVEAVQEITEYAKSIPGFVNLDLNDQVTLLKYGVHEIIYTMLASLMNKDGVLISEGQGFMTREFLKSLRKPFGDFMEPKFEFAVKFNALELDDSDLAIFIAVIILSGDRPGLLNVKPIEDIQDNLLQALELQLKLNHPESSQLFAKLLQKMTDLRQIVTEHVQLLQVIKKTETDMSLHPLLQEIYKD
As to the kind of experiment: Gal4-hPPARγ chimera transactivation in COS-7 cells (luciferase). Format: cell-based. As to conditions: induction factor standardised to an internal reference, read-out: % hGal4-PPAR transactivation (10 μM) gamma. The essentials: as §1

For assay [1], the target named is T3, ATP-dependent potassium channels (K+ATP) (Rattus norvegicus, UniProt Q09429).
T3 construct: the potassium channels derive from a rat's cerebral cortex; tissue CEREP; host or cells: rat cerebral cortex
T3 sequence (Q09429 whole entry): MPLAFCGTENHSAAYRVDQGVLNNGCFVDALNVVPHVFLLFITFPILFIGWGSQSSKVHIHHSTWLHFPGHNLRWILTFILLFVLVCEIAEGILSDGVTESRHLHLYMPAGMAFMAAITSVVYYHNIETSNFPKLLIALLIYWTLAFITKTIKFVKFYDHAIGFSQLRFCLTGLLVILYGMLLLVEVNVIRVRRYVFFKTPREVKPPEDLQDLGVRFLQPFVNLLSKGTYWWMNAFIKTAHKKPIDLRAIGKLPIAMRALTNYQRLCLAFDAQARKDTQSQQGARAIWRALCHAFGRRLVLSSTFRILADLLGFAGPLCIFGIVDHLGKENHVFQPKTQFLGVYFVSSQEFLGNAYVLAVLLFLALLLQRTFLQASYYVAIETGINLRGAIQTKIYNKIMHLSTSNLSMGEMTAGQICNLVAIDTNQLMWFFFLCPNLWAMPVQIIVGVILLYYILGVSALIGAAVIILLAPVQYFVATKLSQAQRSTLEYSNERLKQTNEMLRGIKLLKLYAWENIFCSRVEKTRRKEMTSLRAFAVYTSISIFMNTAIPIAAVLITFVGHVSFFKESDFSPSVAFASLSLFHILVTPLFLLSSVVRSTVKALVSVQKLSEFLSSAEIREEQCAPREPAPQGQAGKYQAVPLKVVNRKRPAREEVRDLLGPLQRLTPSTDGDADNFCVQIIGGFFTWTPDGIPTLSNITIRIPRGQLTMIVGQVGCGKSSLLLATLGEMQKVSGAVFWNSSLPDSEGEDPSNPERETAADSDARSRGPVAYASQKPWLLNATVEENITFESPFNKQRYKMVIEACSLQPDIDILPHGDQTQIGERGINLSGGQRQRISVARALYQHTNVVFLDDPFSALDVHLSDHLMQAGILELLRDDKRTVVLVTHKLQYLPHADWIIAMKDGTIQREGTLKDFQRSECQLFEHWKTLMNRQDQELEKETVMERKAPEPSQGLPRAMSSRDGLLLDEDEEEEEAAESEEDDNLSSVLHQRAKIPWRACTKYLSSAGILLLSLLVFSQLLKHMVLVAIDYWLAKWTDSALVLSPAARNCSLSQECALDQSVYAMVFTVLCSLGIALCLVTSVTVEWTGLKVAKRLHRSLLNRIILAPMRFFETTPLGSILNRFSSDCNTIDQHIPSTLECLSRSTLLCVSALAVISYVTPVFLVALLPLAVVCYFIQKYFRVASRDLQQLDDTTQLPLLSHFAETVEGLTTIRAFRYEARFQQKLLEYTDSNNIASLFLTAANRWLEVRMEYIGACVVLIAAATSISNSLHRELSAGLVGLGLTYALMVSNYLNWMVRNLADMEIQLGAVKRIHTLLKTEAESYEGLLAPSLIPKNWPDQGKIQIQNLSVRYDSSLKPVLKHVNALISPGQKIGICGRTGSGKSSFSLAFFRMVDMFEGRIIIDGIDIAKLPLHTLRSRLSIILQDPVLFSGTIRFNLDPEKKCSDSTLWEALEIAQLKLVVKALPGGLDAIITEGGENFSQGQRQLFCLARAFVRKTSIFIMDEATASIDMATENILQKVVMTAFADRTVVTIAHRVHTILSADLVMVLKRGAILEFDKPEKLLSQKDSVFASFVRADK
T3 sequence (P70673 whole entry partner): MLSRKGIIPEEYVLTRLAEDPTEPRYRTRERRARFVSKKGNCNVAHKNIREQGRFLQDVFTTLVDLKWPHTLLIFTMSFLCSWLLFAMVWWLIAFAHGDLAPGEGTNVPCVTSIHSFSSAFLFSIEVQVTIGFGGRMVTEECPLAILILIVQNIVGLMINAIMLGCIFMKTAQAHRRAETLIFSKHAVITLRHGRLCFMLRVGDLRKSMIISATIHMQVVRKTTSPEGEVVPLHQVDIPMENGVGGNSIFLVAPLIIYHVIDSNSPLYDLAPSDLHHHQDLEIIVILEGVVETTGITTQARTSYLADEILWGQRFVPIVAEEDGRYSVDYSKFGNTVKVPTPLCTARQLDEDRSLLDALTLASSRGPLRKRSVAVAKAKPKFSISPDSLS
As to the kind of experiment: [3H]glibenclamide binding to ATP-dependent potassium channels of rat cerebral cortex. The following applies: 1 h; 300 nM; specific displacement of [3H]glibenclamide 0.1 nM; read-out: KATP binding (300 nM). The method in brief:
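Rat cerebral cortex membranes incubated 1 h at 22° C with 0.1 nM [3H]glibenclamide; nonspecific binding defined with 1 μM unlabelled glibenclamide. Compounds tested at 3–300 nM; values are percent inhibition of specific binding.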
(In a radioligand displacement assay an active substance lowers the binding of a labelled ligand.)

The next assay has as its target T4, hPPARα (Homo sapiens, UniProt Q07869).
T4 construct: fragments of DNA amplified by PCR corresponding to the DEF domains of the human PPARα, PPARγ PPARδ nuclear receptors; expressed in transfected cells; host or cells: COS-7 (monkey kidney fibroblast line)
T4 sequence (Q07869 239-466 limits assumed): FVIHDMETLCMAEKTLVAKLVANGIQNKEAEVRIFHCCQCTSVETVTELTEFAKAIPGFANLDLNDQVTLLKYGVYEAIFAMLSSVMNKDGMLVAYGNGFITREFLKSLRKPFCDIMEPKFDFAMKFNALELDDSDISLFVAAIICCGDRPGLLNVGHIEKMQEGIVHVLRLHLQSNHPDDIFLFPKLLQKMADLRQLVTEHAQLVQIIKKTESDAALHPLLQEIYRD
The experiment in a line: Gal4-hPPARα chimera transactivation in COS-7 cells (luciferase). The following applies: induction factor standardised to an internal reference, read-out: % hGal4-PPAR transactivation (10 μM) alpha. It counts as cell-based. The method in brief:
as §1

Consider `CCCCC(NC(=O)Cc1ccc(OC(C)(C)C(=O)NS(C)(=O)=O)cc1)c1ccccc1N1CCCCC1` (stereo not shown) [Compound 52, N-[methylsulfonyl]-2-[4-[1-(1-(2-(1-piperidinyl)phenyl)pentyl)aminocarbonylmethyl]phenoxy]-2-methylpropanamide], for which the activation at 10 µM was under 10% at hPPARδ, under 10% at hPPARγ and 42% on hPPARα. Further, in assay [1], the inhibition at 0.3 µM came out at 83%.
